Bridge positions count the residues as written; N and C are the ends. Peptide text beside a SMILES is read from it. I, II: the chains in the order shown.
Columns and labels:
[1] = target: T1, receptor for human TPO (c-Mpl) (Homo sapiens, UniProt P40238); assay: Antagonist assay: proliferation of FD-Mpl cells in media supplemented with rhTPO (ATP-luminescence); assay type: cell-based; details: murine FD-Mpl cells, 6 or 10 ng/mL rhTPO (LCP also 30 ng/mL), 24 hours; read-out: concentration at which the decrease in normalised cell proliferation occurred (estimated EC50, antagonist assay)
T1 construct: expressed in transfected cells; host or cells: FD-Mpl (murine, derived from FDCP-1)
T1 sequence (P40238 26-635): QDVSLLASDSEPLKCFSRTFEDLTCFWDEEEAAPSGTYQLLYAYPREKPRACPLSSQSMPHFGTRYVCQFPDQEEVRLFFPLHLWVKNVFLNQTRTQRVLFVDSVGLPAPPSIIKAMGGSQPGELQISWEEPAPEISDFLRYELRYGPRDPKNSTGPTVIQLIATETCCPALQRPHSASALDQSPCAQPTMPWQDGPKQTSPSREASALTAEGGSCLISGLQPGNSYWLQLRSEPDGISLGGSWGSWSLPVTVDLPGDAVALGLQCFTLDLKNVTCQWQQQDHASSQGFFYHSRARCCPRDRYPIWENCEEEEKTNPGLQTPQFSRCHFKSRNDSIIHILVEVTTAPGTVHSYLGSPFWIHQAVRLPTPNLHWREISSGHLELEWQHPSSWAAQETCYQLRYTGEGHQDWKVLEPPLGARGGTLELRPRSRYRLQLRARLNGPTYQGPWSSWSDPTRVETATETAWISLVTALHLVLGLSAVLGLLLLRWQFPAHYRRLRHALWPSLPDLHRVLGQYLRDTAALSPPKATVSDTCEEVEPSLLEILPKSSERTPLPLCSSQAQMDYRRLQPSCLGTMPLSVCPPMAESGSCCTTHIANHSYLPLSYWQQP
Procedure: Bioactivity testing was carried out as follows. All compounds were tested on a murine TPO-dependent cell line FD-Mpl. FD-Mpl cells are derived from the haemopoietic growth factor dependent cell line FDCP-1 and express the receptor for human TPO (c-Mpl)—(as per Winkler, D., Riches, A., Condie, G., Tarasova, A., Andrade, J., White, J., Cablewski, T., Werkmeister, J., Haylock, D. and Meagher, L., ACS Chemical Biology 2010, DOI: 10.1021/cb100100u). […] FD-Mpl cells were counted and resuspended in a mix of cell culture medium with added peptide of interest and incubated at 4° C. for 2 h (for the agonist assay this brief incubation at 4° C. for 2 h was omitted). […]
Cells were then incubated at 37° C. for 24 hours (or 48 hours in the case of the agonist assay) and cell proliferation was assessed as follows. Cells were plated in quadruplicate onto white luminescence detection plates and cell proliferation and viability were assessed by an ATP-luminescence detection assay (CellTiter Glo Luminescent Cell Viability Assay Kit, Promega). Cells were also plated in triplicate and cell morphology was assessed using phase contrast microscopy. […]

[2] = target: T1, receptor for human TPO (c-Mpl); assay: Agonist assay: proliferation of FD-Mpl cells in the absence of rhTPO (ATP-luminescence); assay type: cell-based; details: no rhTPO
Procedure: Bioactivity testing was carried out as follows. All compounds were tested on a murine TPO-dependent cell line FD-Mpl. FD-Mpl cells are derived from the haemopoietic growth factor dependent cell line FDCP-1 and express the receptor for human TPO (c-Mpl)—(as per Winkler, D., Riches, A., Condie, G., Tarasova, A., Andrade, J., White, J., Cablewski, T., Werkmeister, J., Haylock, D. and Meagher, L., ACS Chemical Biology 2010, DOI: 10.1021/cb100100u). These cells are typically cultured in media supplemented with 10% foetal bovine serum and the cytokines interleukin-3, GM-CSF or TPO (as per Naparstek, E., Pierce, J., Metcalf, D., Shadduck, R., Ihle, J., Leder, A., Sakakeeny, M. A., Wagner, K., Falco, J., Fitzgerald, T. J. and Greenberger, J. S., Blood 1986, 67, 1395-1403). In the absence of either of these factors, FDCP-1 cells rapidly undergo apoptosis (usually within 24 hours). FD-Mpl cells were maintained in DMEM medium with 10% foetal calf serum (FCS) and supplemented with 30 ng/mL of recombinant human TPO (rhTPO, Apollo Cytokine Research). For the antagonist assay, FD-Mpl cells were harvested by centrifugation and the resulting cell pellet was thoroughly washed, twice, with 10 mL PBS to remove residual cytokine. The cells were then resuspended in 5 mL of cell culture medium without rhTPO and incubated at 37° C. for 1 h (or 2 h in the case of the agonist assay; Note: short term withdrawal of rhTPO enhances up-regulation of the TPO receptor, c-Mpl). FD-Mpl cells were counted and resuspended in a mix of cell culture medium with added peptide of interest and incubated at 4° C. for 2 h (for the agonist assay this brief incubation at 4° C. for 2 h was omitted). Following this incubation, cells were supplemented with low doses of TPO (either 6 or 10 ng/mL of rhTPO) and plated at 5000 cells/well/100 μL medium in a 96-well tissue culture plate. […]
Cells were then incubated at 37° C. for 24 hours (or 48 hours in the case of the agonist assay) and cell proliferation was assessed as follows. Cells were plated in quadruplicate onto white luminescence detection plates and cell proliferation and viability were assessed by an ATP-luminescence detection assay (CellTiter Glo Luminescent Cell Viability Assay Kit, Promega). Cells were also plated in triplicate and cell morphology was assessed using phase contrast microscopy.
For the antagonist assay, the cell numbers determined via the luminescence assay were normalised by the cell numbers obtained for FD-Mpl cells cultured in either 6 or 10 ng/mL of rhTPO without added peptide and plotted as a function of the peptide concentration (see FIGS. 1a and b). […] For the agonist assay used with the LCP-PD peptide, the cell numbers were normalised by the cell numbers obtained with media supplemented with 30 ng/mL rhTPO and expressed as a percentage. […]

Row | EC50 [1] | agonist activity at the c-Mpl receptor (in words) ([2]; FD-Mpl cells) | efficacy with respect to cell proliferation (agonist assay) ([2]; FD-Mpl cells, normalised by cell numbers with 30 ng/mL rhTPO) | EC50 ([2]; murine FD-Mpl cells, 48 hours, read-out: concentration at which increased cell proliferation was observed (agonist assay)) | SMILES
1 | 20 to 30 µM |  |  |  | CC(=O)N[C@@H](C)C(=O)N[C@H]1CSSC[C@@H](C(=O)N[C@@H](C)C(=O)O)NC(=O)[C@H](C)NC(=O)[C@H](C)NC(=O)[C@H](C)NC(=O)[C@H](CC(C)C)NC(=O)[C@H](Cc2c[nH]c3ccccc23)NC(=O)[C@H](CCC(N)=O)NC(=O)[C@H](CCCNC(=N)N)NC(=O)[C@H](CC(C)C)NC(=O)[C@H](C)NC(=O)[C@H](C)NC(=O)[C@H](C)NC1=O [Example 2, AcACAAALRQWLAAACA] (Ac-ACAAALRQWLAAACA-OH; disulfide 2-14)
2 |  | potent agonist |  |  | CC[C@H](C)[C@@H]1NC(=O)[C@H](C)NC(=O)[C@@H](NC(=O)[C@H](C)NC(C)=O)CSSC[C@H](NC(=O)[C@H](C)NC(C)=O)C(=O)N[C@@H](C)C(=O)N[C@@H]([C@@H](C)CC)C(=O)N[C@@H](CCC(=O)O)C(=O)NCC(=O)N2CCC[C@H]2C(=O)N[C@@H]([C@@H](C)O)C(=O)N[C@@H](CC(C)C)C(=O)N[C@@H](CCCNC(=N)N)C(=O)N[C@@H](CCC(N)=O)C(=O)N[C@@H](Cc2c[nH]c3ccccc23)C(=O)N[C@@H](CC(C)C)C(=O)N[C@@H](C)C(=O)N[C@@H](C)C(=O)N[C@@H](CCCNC(=N)N)C(=O)N[C@@H](C)C(=O)N[C@@H](C)C(=O)N[C@H](C(=O)N[C@@H](C)C(=O)O)CSSC[C@@H](C(=O)N[C@@H](C)C(=O)O)NC(=O)[C@H](C)NC(=O)[C@H](C)NC(=O)[C@H](CCCNC(=N)N)NC(=O)[C@H](C)NC(=O)[C@H](C)NC(=O)[C@H](CC(C)C)NC(=O)[C@H](Cc2c[nH]c3ccccc23)NC(=O)[C@H](CCC(N)=O)NC(=O)[C@H](CCCNC(=N)N)NC(=O)[C@H](CC(C)C)NC(=O)[C@H]([C@@H](C)O)NC(=O)[C@@H]2CCCN2C(=O)CNC(=O)[C@H](CCC(=O)O)NC1=O [LCP-PD] (I: Ac-ACAIEGPTLRQWLAARAACA-OH / II: Ac-ACAIEGPTLRQWLAARAACA-OH; disulfide I:2-II:2, I:19-II:19; C-terminus assumed)
3 | ~3 µM |  | 40% | ~60 nM | CC[C@H](C)[C@@H]1NC(=O)[C@H](C)NC(=O)[C@@H](NC(=O)[C@H](C)NC(C)=O)CSSC[C@@H](C(=O)N[C@@H](C)C(=O)O)NC(=O)[C@H](C)NC(=O)[C@H](C)NC(=O)[C@H](CCCNC(=N)N)NC(=O)[C@H](C)NC(=O)[C@H](C)NC(=O)[C@H](CC(C)C)NC(=O)[C@H](Cc2c[nH]c3ccccc23)NC(=O)[C@H](CCC(N)=O)NC(=O)[C@H](CCCNC(=N)N)NC(=O)[C@H](CC(C)C)NC(=O)[C@H]([C@@H](C)O)NC(=O)[C@@H]2CCCN2C(=O)CNC(=O)[C@H](CCC(=O)O)NC1=O [LCP] (Ac-ACAIEGPTLRQWLAARAACA-OH; disulfide 2-19; C-terminus assumed)
4 |  | reasonably potent agonist |  |  | CC(=O)N[C@@H](C)C(=O)N[C@H]1CSSC[C@H](NC(=O)[C@H](C)NC(C)=O)C(=O)N[C@@H](C)C(=O)N[C@@H](C)C(=O)N[C@@H](C)C(=O)N[C@@H](CC(C)C)C(=O)N[C@@H](CCCNC(=N)N)C(=O)N[C@@H](CCC(N)=O)C(=O)N[C@@H](Cc2c[nH]c3ccccc23)C(=O)N[C@@H](CC(C)C)C(=O)N[C@@H](C)C(=O)N[C@@H](C)C(=O)N[C@@H](C)C(=O)N[C@H](C(=O)N[C@@H](C)C(=O)O)CSSC[C@@H](C(=O)N[C@@H](C)C(=O)O)NC(=O)[C@H](C)NC(=O)[C@H](C)NC(=O)[C@H](C)NC(=O)[C@H](CC(C)C)NC(=O)[C@H](Cc2c[nH]c3ccccc23)NC(=O)[C@H](CCC(N)=O)NC(=O)[C@H](CCCNC(=N)N)NC(=O)[C@H](CC(C)C)NC(=O)[C@H](C)NC(=O)[C@H](C)NC(=O)[C@H](C)NC1=O [MCP-PD] (I: Ac-ACAAALRQWLAAACA-OH / II: Ac-ACAAALRQWLAAACA-OH; disulfide I:2-II:2, I:14-II:14; C-terminus assumed)

From patent US20180193409A1, “PEPTIDYL TPOR ANTAGONISTS AND USES THEREOF” (POLYMERS CRC LIMITED, priority 2015, published 2018)
